Laboratory results reported in patent US12331042B2, “Compounds suitable for the treatment and prophylaxis of muscle wasting and other conditions” (priority 2019, dated 2025).
“Also recorded” adds a separate entry of the source.

How the values were obtained:
[1] = molecular target: MuRF1 E3 ligase activity (Homo sapiens, UniProt Q969Q1); experiment: Inhibition of MuRF1 E3 ligase activity (ubiquitination, Western blot); type: biochemical; conditions: 20-100 μmol/L compound, 1 h at 37° C., based on ubiquitination patterns
Method: Compounds were then assessed for effects on MuRF1 E3 ligase activity directed to titin or to MuRF1 itself (self-ubiquitination) by mixing 75 nmol/L UBE1 (Boston Biochem), 1 μmol/L UbcH5c (Boston Biochem), 100 μmol/L Ubiquitin, 4 mmol/L ATP, 100 nmol/L Titin A168-170 with 20-100 μmol/L of respective compounds. Reactions were started by addition of 220 nmol/L MuRF1, followed by 1 h at 37° C., SDS PAGE and Western blot analysis with MuRF1 and titin specific antibodies. All reactions also included 5% DMSO.

[2] = tested on: monocrotaline (MCT)-treated C57BL/6 mice; experiment: Pulmonary hypertension mouse model, test series 2; type: in vivo; conditions: MCT+compound (0.1 weight-% in chow) vs MCT, 8 weeks
Method: The test series 2 were performed analogous to test series 1. Briefly, Three groups of mice were included in this study: 1) saline-treated mice (sham; n=10); 2) monocrotaline (MCT)-treated mice fed with normal chow (MCT; n=10); and 3) MCT-treated mice fed with MuRF1 inhibitor chow (MCT+compound; n=10 for each compound). 8 weeks old C57BL/6 mice were subcutaneously injected weekly with either MCT (600 mg/kg) or a matched volume of saline for 8 weeks. The MCT+compound group started receiving the inhibitor chow 1 week prior to the MCT injections, whereas the sham and MCT groups were fed an identical chow but without the addition of the selected compound. The compound concentration in the chow was 0.1 weight-%, resulting in a daily compound intake per mouse of about 3 mg. Body weight was recorded every week for each mouse. Mice were sacrificed after 8 weeks treatment. At sacrifice, examination and tissue analysis were performed as described in test series 1.

[3] = tested on: ICR-DIO male mice; experiment: Glucose and insulin regulation in DIO mice (fasting glucose, OGTT, ITT); type: in vivo
Excerpt: Analogously to example 2.7, diabetes was induced by a high-fructose high-fat diet (HFD) for 4 months in DIO mice. The mice developed increased fasting glucose and insulin resistance. Control group animals received a normal rodent diet (regular diet). Weight loss was then induced during a 30 days test period. In a first stage, the animals were fed normal rodent diet for 16 days. Then in a second stage the animals received a low-calory diet for 14 days. Two days after start of the first stage, the diet was supplemented with MyoMed-203 (at 1 g compound/1 kg food).
Test design: ICR-DIO male mice were randomly assigned to groups of 8-10 animals each. Three control groups were included: Control group of mice without obesity (control; regular diet (RD); n=10), obese mice fed with high-fructose high-fat diet during the entire study period (DIO HFD; n=8); and obese mice with initiated weight loss (DIO control; n=8).
Determining the level of blood glucose was performed after 6-hour fasting. An On Call Plus glucometer (Acon Laboratories, Inc., USA) and specific test strips (REF G133-111) were used for determination of glucose levels. Blood was obtained from the tail vein by incision of the tail tip. 5-6 μl of blood were used for each assay.
For oral glucose tolerance test (OGTT), mice were orally treated with glucose at dose of 2 g/kg at the dose volume of 10 ml/kg after a 6-hour fasting. Glucose measurements were performed immediately before treatment and at 15, 30, 60 and 120 min after glucose administration. The AUC describing the rate of blood glucose output in each mouse during the test was calculated using the formula: […]
For insulin tolerance test (ITT), mice were injected intraperitoneally with recombinant human insulin solution (Lilly, France; REF C620001K) at the dose of 0.75 or 0.60 IU/[…] of body weight in the volume of 5 ml/kg after 6-hour fasting. Glucose measurements were performed immediately before treatment and at 15, 30, 60 and 120 min after insulin administration. The results of the rate of blood glucose output were expressed as area under the curve (AUC).

Chain of MuRF1 E3 ligase activity (Q969Q1 whole entry): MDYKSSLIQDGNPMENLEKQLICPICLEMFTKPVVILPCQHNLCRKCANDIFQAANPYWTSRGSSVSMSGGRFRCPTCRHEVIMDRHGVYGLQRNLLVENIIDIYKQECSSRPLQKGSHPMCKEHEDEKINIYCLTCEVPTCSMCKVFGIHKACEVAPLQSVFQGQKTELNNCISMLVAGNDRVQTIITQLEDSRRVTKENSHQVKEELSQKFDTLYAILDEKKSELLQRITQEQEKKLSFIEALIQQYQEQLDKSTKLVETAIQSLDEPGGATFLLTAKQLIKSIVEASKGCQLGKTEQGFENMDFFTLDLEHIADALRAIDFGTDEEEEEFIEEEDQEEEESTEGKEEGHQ

| Structure (SMILES) | inhibition of MuRF1 E3 ligase activity [1] | loss of skeletal muscle mass (EDL, TA wet weight; diaphragm maximum force) [2] | right ventricle hypertrophy [2] | blood glucose level after 6-hour fasting ([3]; 1 g compound/1 kg food, vs DIO control, throughout the treatment period) | hypoglycemic effect according to OGTT ([3]; after 14 days of weight loss and treatment) | blood glucose at 30 minutes of OGTT ([3]; day 14, vs DIO control) | OGTT calculated area under the glucose elimination curve ([3]; day 28) | glucose level at 120 min of OGTT ([3]; day 28, vs all control groups) | glucose level at 120 minutes after insulin injection (ITT) ([3]; vs all control groups) |
| --- | --- | --- | --- | --- | --- | --- | --- | --- | --- |
| Cc1cc(=O)oc2cc(OCc3ccc(C(=O)OC(C)C(=O)NC(N)=O)cc3)ccc12 (stereo not shown) [MyoMed-946-5, (1-methyl-2-oxo-2-ureido-ethyl) 4-[(4-methyl-2-oxo-chromen-7-yl)oxymethyl]benzoate] | significantly inhibit MuRF1 E3 ligase activity |  |  |  |  |  |  |  |  |
| Cc1cc(=O)oc2cc(OCc3ccc(C(=O)OCC(=O)NC(=O)NCc4ccccn4)cc3)ccc12 [MyoMed-203, [2-oxo-2-(2-pyridylmethylcarbamoylamino)ethyl] 4-[(4-methyl-2-oxo-chromen-7-yl)oxymethyl]benzoate] |  | most pronounced effect | attenuated; also recorded: attenuate the development of right ventricle hypertrophy | significantly lower | mild hypoglycemic effect | tended to be lower | tended to be lower | significant decrease in the glucose level | significant decrease of glucose level |
| CNC(=O)NC(=O)C(C)OC(=O)c1ccc(COc2ccc3c(C)cc(=O)oc3c2)cc1 (stereo not shown) [MyoMed-946-8, [1-methyl-2-(methylcarbamoylamino)-2-oxo-ethyl] 4-[(4-methyl-2-oxo-chromen-7-yl)oxymethyl]benzoate] | significantly inhibit MuRF1 E3 ligase activity |  |  |  |  |  |  |  |  |
